Counter-ions that a name gives are not always drawn.
Assays:
[1] = Accelerated stability, 40° C./75% RH, five weeks, LDPE bag; format: physicochemical; conditions: for API chemical purity over the course of the stability study: five weeks; for Assay / Chiral Potency / Total Impurities: HPLC
Experimental: Upon removal from the chamber, the samples were physically characterized by appearance, KF, TGA, DSC, XRD and PLM. The samples were also analyzed by HPLC for chromatographic purity, chiral integrity and potency. Where applicable, the data presented in the stability portion also includes the original T=0 data for comparison purposes. The data can be seen in Tables 25-29 and FIGS. 40-44.

[2] = Dynamic vapor sorption (DVS-1 system); format: physicochemical; conditions: for DVS (outcome): form after or during DVS, HCl at 50-60% RH
Experimental: For the DVS measurement a sample of crystalline form (I—HS) was cycled through changing humidity conditions to determine its hygroscopicity. The sample was analyzed using a Surface Measurement System DVS-1 Dynamic Vapor Sorption System. […] Data was collected in 1 minute intervals. Nitrogen was used as the carrier gas. […] After completion of the sorption cycle, the sample was dried using the same procedure, but all the way down to 0% RH and finally taken back to the starting point of 20% RH. The weight change during the sorption/desorption cycles were plotted, allowing for the hygroscopic nature of the sample to be determined.

[3] = Stability on aluminum slide at 40° Celsius/75% RH; format: physicochemical; conditions: time: I-HS 10 days, HCl 1 hour, HBr 2 weeks, mesylate overnight
[4] = Dynamic vapor sorption (IGAsorp analyzer, 25° C.); format: physicochemical
Experimental: • 1. The hygroscopicity was studied at 25° C. using an IGAsorp analyzer. • 2. About 15 mg of sample was placed in a tared mesh sample holder at an initial ambient room humidity setting of ˜35%. • 3. A total wet/dry nitrogen flow rate of 250 cc/min is used throughout the study. • 4. […] The maximum time allowed at any one humidity set point was 120 min. The sample was maintained under dry N2 after the cycle was completed. Percent weight gain was calculated based on the dry weight basis. Part One: Physical Characterization of Crystalline Form (I—HS)

[5] = test system: TPM3-TRKA, pAKT, and pERK1/2; assay: Immunoblot of phosphorylation in KM12 cells; format: cell-based, human; conditions: low doses, 2 hours
Description: (§1) Briefly, cells were lysed in RIPA buffer with Halt Protease and Phosphatase Inhibitor Cocktail (Thermo Scientific) and diluted in loading buffer (LI-COR Biosciences). The membranes were scanned and analyzed using the Odyssey Imaging System and software (LI-COR). The following antibodies were used from Cell Signaling: pTRK Y490 (rabbit polyclonal, #9141), pERK1/2 XP T202/Y204 (#9101), total ERK1/2, pAKT 5473 (rabbit mAb, #4060), and total AKT mouse clone D3A7 (#2920). TRK (C-14) rabbit polyclonal antibody was purchased from Santa Cruz Biotechnology. GAPDH (MAB374) and pTYR (4G10) are from Millipore.

[6] = test system: xenograph (human) tumor derived from CUTO-3F cell line; assay: Xenograft tumor growth, CUTO-3F; format: in vivo, mice; conditions: CUTO-3F xenograft, oral daily 60 mg/kg or 200 mg/kg
Description: (§2) The three different cancer cell lines, the CUTO-3F cell line, the KM12 cell line, and the MO-91 cell line, each express a different Trk gene fusion. […] Following implantation of one of these three different xenograph (human) tumors in mice, the change in the volume of each tumor was monitored.

[7] = test system: TEL-TRKC oncoprotein, pAKT, and pERK1/2; assay: Immunoblot of phosphorylation in MO-91 cells; format: cell-based, human; conditions: low doses, 2 hours
Description: FIG. 13 is an immunoblot showing that the crystalline form (I—HS)inhibits TEL-TRKC kinase and ERK1/2 and AKT activity in MO-91 cells.
as §1

[8] = test system: undifferentiated sarcoma with LMNA-NTRK1 fusion; assay: Phase 1 trial case: patient with undifferentiated sarcoma; format: in vivo, human; conditions: one patient
Description: The patient started cycle 1 day 1 three days later. The patient was seen weekly for pharmacokinetic and safety analysis.

[9] = test system: xenograph (human) tumor derived from KM12 cell line; assay: Xenograft tumor growth, KM12; format: in vivo, mice; conditions: oral daily 60 mg/kg or 200 mg/kg
Description: as §2

TRKA-SHC1 complexes = assay: TRK-SHC1 proximity ligation assay in CUTO-3 cells; format: cell-based, human; conditions: 100 nM, 2 hours, versus DMSO
Experimental: PLAs are unique because they can detect functional signaling complexes between a kinase and one of its adaptors in situ. In this assay, TRKA complexed with its preferred adaptor, SHC1, which binds to Y496 in the TRKA kinase domain, was measured (FIG. 17).
Cells were seeded onto glass coverslips (in a 48 well plate) or chamber slides at 25-75 k cells/well. Cells were treated with the indicated doses and times then fixed for 15 minutes by shaking at room temperature in 4% paraformaldehyde. The cells were rinsed twice in PBS, and then the Duolink® in situ PLA® kit from SigmaAldrich in mouse/rabbit (Red) was used according to the manufacturer's protocol (catalog # DUO92101). The antibody concentrations were optimized using immunofluorescence prior to PLA experiments. […] Additionally, samples were treated with 300 mM glycine for 15 minutes prior to the blocking step, otherwise the assay was performed according to the manufacturer's protocol. The cells were mounted using Prolong® gold anti-fade reagent (with DAPI) and cured overnight prior to imaging. The images were either taken on a Nikon standard inverted fluorescent microscope at 40×, or on the 31 Marianas spinning disc confocal in the University of Colorado Anschutz Medical Campus Advance Light Microscopy Core at 40× or 100×. […]

[10] = test system: solid tumors with NTRK-fusions; assay: Phase 1 study: response (RECIST 1.1) in NTRK-fusion patients; format: in vivo, human; conditions: 100 or 150 mg BID
Experimental: Three of the 23 patients harbored NTRK-fusions and were treated at either 100 or 150 mg BID.

[11] = Phase 1 dose escalation study: safety and pharmacokinetics
Experimental: Response is measured by RECIST Criteria, version 1.1. Serum is collected for pharmacokinetic analysis on Cycle 1 Day 1 and Day 8. Safety information is collected on all patients and the definition of dose-limiting toxicity applies to adverse events regardless of relationship to investigational product.

[12] = test system: xenograph (human) tumor derived from MO-91 cell line; assay: Xenograft tumor growth, MO-91; format: in vivo, mice; conditions: MO-91 xenograft, oral daily 60 mg/kg or 200 mg/kg
Description: as §2

[13] = test system: MPRIP-TRKA oncoprotein and ERK1/2; assay: Immunoblot of phosphorylation in CUTO-3F cells; format: cell-based, human; conditions: low doses, 2 hours
Description: as §1

O=C(Nc1cnn2ccc(N3CCC[C@@H]3c3cc(F)ccc3F)nc12)N1CC[C@H](O)C1.O=S(=O)(O)O [AM(HS)1, (S)—N-(5-((R)-2-(2,5-difluorophenyl)-pyrrolidin-1-yl)-pyrazolo[1,5-a]pyrimidin-3-yl)-3-hydroxypyrrolidine-1-carboxamide hydrogen sulfate]
Peak Area Percent, RRT 0.793 ([1]; 40 C/75% RH, 5 wks.): 0.00 Peak Area Percent
Peak Area Percent, RRT 0.863 ([1]; 40 C/75% RH, 5 wks.): 1.04 Peak Area Percent
Peak Area Percent, RRT 0.981 ([1]; 40 C/75% RH, 5 wks.): 0.12 Peak Area Percent
Peak Area Percent, RRT 1.000 ([1]; 40 C/75% RH, 5 wks.): 98.83 Peak Area Percent
Peak Area Percent, RRT 1.535 ([1]; 40 C/75% RH, 5 wks.): 0.00 Peak Area Percent
KF ([1]; 40° C./75% RH, 5 wks.): 0.56 w/w %
API chemical purity over the course of the stability study ([1]; 40° C./75% RH): did not change significantly
Assay ([1]; 40° C./75% RH, 5 wks.): 80.3%
Chiral Potency ([1]; 40° C./75% RH, 5 wks.): 99.6%
Total Impurities ([1]; 40° C./75% RH, 5 wks.): 1.16%
Assay ([1]; time point 0 wks.): 79.5%
Chiral Potency ([1]; time point 0 wks.): 99.6%
Total Impurities ([1]; time point 0 wks.): 1.10%
Appearance ([1]; time point 0 wks.): Yellow Powder free
KF ([1]; time point 0 wks.): 2.00 w/w %
Peak Area Percent, RRT 0.793 ([1]; time point 0 wks.): 0.00 Peak Area Percent
Peak Area Percent, RRT 0.863 ([1]; time point 0 wks.): 0.98 Peak Area Percent
Peak Area Percent, RRT 0.981 ([1]; time point 0 wks.): 0.12 Peak Area Percent
Peak Area Percent, RRT 1.000 ([1]; time point 0 wks.): 98.89 Peak Area Percent
Peak Area Percent, RRT 1.535 ([1]; time point 0 wks.): 0.00 Peak Area Percent

CS(=O)(=O)O.O=C(Nc1cnn2ccc(N3CCC[C@@H]3c3cc(F)ccc3F)nc12)N1CC[C@H](O)C1 [Mesylate, (S)—N-(5-((R)-2-(2,5-difluorophenyl)pyrrolidin-1-yl)pyrazolo[1,5-a]pyrimidin-3-yl)-3-hydroxypyrrolidine-1-carboxamide methanesulfonate]
DVS (outcome) [2]: (crystalline)
Stability at 40° Celsius/75% RH (aluminum slide) [3]: Deliquesced

O=C(Nc1cnn2ccc(N3CCC[C@@H]3c3cc(F)ccc3F)nc12)N1CC[C@H](O)C1 [crystalline form (I—HS), (S)—N-(5-((R)-2-(2,5-difluorophenyl)-pyrrolidin-1-yl)-pyrazolo[1,5-a]pyrimidin-3-yl)-3-hydroxypyrrolidine-1-carboxamide hydrogen sulfate]
hygroscopicity (DVS) [4]: not hygroscopic
inhibition of phosphorylation of TPM3-TRKA, pAKT, and pERK1/2 [5]: inhibition
growth of xenograft tumor [6]: effectively halt the growth, or decrease the rate of growth
inhibition of phosphorylation of the TEL-TRKC oncoprotein, pAKT, and pERK1/2 [7]: inhibition
response by RECIST 1.1 ([8]; 100 mg twice daily, CT prior to cycle 2 and cycle 3): partial response
drug-related adverse events ([8]; 4-week period of cycle 1): No drug-related adverse events
adverse events attributed to the drug ([8]; after four months of dosing): did not have any adverse events
oxygen saturation ([8]; on room air, after treatment (baseline 90% with 5 L oxygen)): 97%
CA125 levels ([8]; over cycle 1): normalized
growth of xenograft tumor [9]: effectively halt the growth, or decrease the rate of growth
hygroscopicity (DVS) [2]: non-hygroscopic
increase in mass during the sorption cycle ([2]; between 0% and 90% RH): about 1.7%
DVS (outcome) [2]: RH No change
Stability at 40° Celsius/75% RH (aluminum slide) [3]: No form change
effect on TRKA-SHC1 complexes (PLA) (TRKA-SHC1 complexes): disruption of TRKA-SHC1 complexes
response of the three NTRK-fusion patients [10]: partial response
adverse event: Grade 1 and 2 anemia ([11]; 23 patients): 22%
adverse event: Grade 1 and 2 dizziness ([11]; 23 patients): 26%
adverse event: Grade 1 and 2 fatigue ([11]; 23 patients): 35%
patients with dose limiting toxicities ([11]; elevated AST grade 3 (150 mg BID), delirium grade 3 unrelated (100 mg BID)): Two
growth of xenograft tumor [12]: effectively halt the growth, or decrease the rate of growth
inhibition of phosphorylation of the MPRIP-TRKA oncoprotein and ERK1/2 [13]: inhibition
Peak Area Percent, RRT 0.793 ([1]; 40 C/75% RH, 5 wks.): 0.07 Peak Area Percent
Peak Area Percent, RRT 0.863 ([1]; 40 C/75% RH, 5 wks.): 0.00 Peak Area Percent
Peak Area Percent, RRT 0.981 ([1]; 40 C/75% RH, 5 wks.): 0.00 Peak Area Percent
Peak Area Percent, RRT 1.000 ([1]; 40 C/75% RH, 5 wks.): 99.93 Peak Area Percent
Peak Area Percent, RRT 1.535 ([1]; 40 C/75% RH, 5 wks.): 0.00 Peak Area Percent
Appearance ([1]; 40° C./75% RH, 5 wks.): Orange Powder free
KF ([1]; 40° C./75% RH, 5 wks.): 0.21 w/w %
API chemical purity over the course of the stability study ([1]; 40° C./75% RH): did not change significantly
Assay ([1]; 40° C./75% RH, 5 wks.): 79.6%
Chiral Potency ([1]; 40° C./75% RH, 5 wks.): 99.6%
Total Impurities ([1]; 40° C./75% RH, 5 wks.): 0.07%
Assay ([1]; time point 0 wks.): 79.4%
Chiral Potency ([1]; time point 0 wks.): 99.6%
Total Impurities ([1]; time point 0 wks.): 0.14%
Appearance ([1]; time point 0 wks.): Orange Powder free
KF ([1]; time point 0 wks.): 0.28 w/w %
Peak Area Percent, RRT 0.793 ([1]; time point 0 wks.): 0.07 Peak Area Percent
Peak Area Percent, RRT 0.863 ([1]; time point 0 wks.): 0.00 Peak Area Percent
Peak Area Percent, RRT 0.981 ([1]; time point 0 wks.): 0.00 Peak Area Percent
Peak Area Percent, RRT 1.000 ([1]; time point 0 wks.): 99.86 Peak Area Percent
Peak Area Percent, RRT 1.535 ([1]; time point 0 wks.): 0.07 Peak Area Percent

O=C(Nc1cnn2ccc(N3CCC[C@@H]3c3cc(F)ccc3F)nc12)N1CC[C@H](O)C1.O=S(=O)(O)O [AM(HS), (S)—N-(5-((R)-2-(2,5-difluorophenyl)-pyrrolidin-1-yl)-pyrazolo[1,5-a]pyrimidin-3-yl)-3-hydroxypyrrolidine-1-carboxamide hydrogen sulfate]
behaviour when exposed to humidity [1]: deliquesced

Br.O=C(Nc1cnn2ccc(N3CCC[C@@H]3c3cc(F)ccc3F)nc12)N1CC[C@H](O)C1 [HBr, (S)—N-(5-((R)-2-(2,5-difluorophenyl)pyrrolidin-1-yl)pyrazolo[1,5-a]pyrimidin-3-yl)-3-hydroxypyrrolidine-1-carboxamide hydrobromide]
DVS (outcome) [2]: (deliquesced)
Stability at 40° Celsius/75% RH (aluminum slide) [3]: amorphous

Cl.O=C(Nc1cnn2ccc(N3CCC[C@@H]3c3cc(F)ccc3F)nc12)N1CC[C@H](O)C1 [HCl, (S)—N-(5-((R)-2-(2,5-difluorophenyl)pyrrolidin-1-yl)pyrazolo[1,5-a]pyrimidin-3-yl)-3-hydroxypyrrolidine-1-carboxamide hydrochloride]
DVS (outcome) [2]: form change
Stability at 40° Celsius/75% RH (aluminum slide) [3]: form change
